tested on: HMPV clinical isolate A2 strain TN 94-49; experiment: HMPV antiviral assay, Method 1 (LLC-MK2 cells, ATP-Lite); format: cell-based; conditions: human metapneumovirus, hMPV A2 TN/94-49, LLC-MK2 cells
Protocol: In vitro HMPV antiviral activity was evaluated using the clinical isolate A2 strain TN 94-49 (obtained from Dr. John Williams, Vanderbilt University, Tennessee) and LLC-MK2 cells (ATCC #CCL-7), an immortalized kidney epithelial cell line from Macaca mulatta. Compounds were resuspended in dimethyl sulfoxide (DMSO) at 10 mM, serially diluted and added to a 384-well source plate. Subsequently, the compounds were diluted and transferred onto 384-well assay plates using the Echo-650 automated liquid handling system (Beckman Coulter, Indiana). The test compounds were assessed in duplicate at a top concentration of 2 μM followed by 2.5-fold serial dilutions to give a total of 10 concentration points. DMSO control wells were also included on the assay plates and were either infected or not, acting as positive and negative controls. A2 TN 94-49 virus infections were performed in-suspension with LLC-MK2 cells. The cells were washed twice with PBS and removed from the cell-culture flask with 0.25% trypsin-EDTA (Thermo Fisher Scientific, MA). The trypsin-EDTA was inactivated by resuspending in 2% fetal bovine serum (FBS) and OptiMEM (ThermoFisher Scientific, MA) containing 1% penicillin-streptomycin. Cells were pelleted by centrifuging for 5 minutes at 800 rpm, the supernatant was removed, and cells were re-suspended and washed in PBS plus 100 μg/mL CaCl2). This step was performed twice. Cells were then re-suspended in serum-free (SF)-OptiMEM containing 4 μg/mL TPCK-Trypsin (Sigma Aldrich, MO), 1% penicillin-streptomycin (ThermoFisher Scientific, MA) and 100 μg/mL CaCl2). Cells were counted and seeded at a density of 5,000 cells/well, 12.5 μL/well. Virus infections were done at a multiplicity of infection (MOI) of 0.005 with 12.5 μL added per well. Virus infections were performed in infection media which contained SF-OptiMEM, 100 μg/mL CaCl2) and 1% penicillin-streptomycin. HMPV viral stocks are suspended in infection media+5% glycerol, thus an equal volume of infection media+5% glycerol was added to uninfected wells to equalize the final % glycerol across all wells of the assay plate. The final concentration of TPCK-trypsin was 2 μg/mL. The assay plates were incubated at 37° C., 5% CO2 for 7 days. After 7 days incubation, 12.5 μL of ATP-Lite (PerkinElmer, MA) was added to each well and the raw luminescence values were determined using the Envision 2104 (Perkin Elmer, MA). The average of the raw luminescence values for the cells and virus only positive control wells was subtracted from all conditions tested and the percent cell health was determined by dividing these values by the average of the cells only negative control wells. EC50 values were then calculated by non-linear regression using a four-parameter curve logistic equation. The curve fit model employed was XLFit Dose Response One Site Model 200: y=(A+(B/(1+((x/C)^D)))), where A is the minimum y value, B is the maximum y value, C is the log EC50 value, and D is the slope factor.

Row | SMILES | EC50
1 | COc1cc(C(=O)NC[C@](O)(c2cc3c(c(-c4ccc(F)c(CO)c4F)n2)OC[C@]3(C)C(N)=O)C2CC2)cc2cn(C3CC3)nc12 [Example 72] | > 500 nM
2 | COc1cc(C(=O)NC[C@](O)(c2cc3c(c(-c4cc(Cl)c(F)cc4F)n2)OC[C@]3(C)C(N)=O)C2CC2)cn2cc(C(F)F)nc12 [Example 78] | > 500 nM
3 | C[C@]1(C(N)=O)COc2c1cc([C@@](O)(CNC(=O)c1ccc3nc(C(F)(F)F)oc3c1)c1ccccc1)nc2-c1cc(Cl)c(F)cc1F [Example 82] | > 500 nM
4 | Cc1nc2c(OC(F)F)cc(C(=O)NC[C@@](O)(c3cccc(F)c3)c3cc4c(c(-c5cc(Cl)c(F)cc5F)n3)OC[C@]4(C)C(N)=O)cc2cc1Br [Example 135] | > 500 nM
5 | COc1cc(C(=O)NC[C@@](O)(c2ccccc2)c2cc3c(c(-c4cc(C(F)(F)F)ccc4F)n2)OC[C@]3(C)C(N)=O)cc2cn(C(F)F)nc12 [Example 148] | < 500 nM
6 | COc1cc(C(=O)NC[C@@](O)(c2ccccc2)c2cc3c(c(-c4cc(C(F)(F)F)ccc4F)n2)OC[C@]3(C)C(N)=O)cc2cc(C3CC3)nn12 [Example 149] | < 500 nM
7 | [2H]C([2H])([2H])c1nc2c(OC)cc(C(=O)NC[C@@](O)(c3ccccc3)c3cc4c(c(-c5cc(Cl)c(F)cc5F)n3)OC[C@]4(C)C(N)=O)cc2s1 [Example 155] | < 500 nM
8 | COc1cc(C(=O)NC[C@@](O)(c2ccccc2)c2cc3c(c(-c4cc(Cl)c(F)cc4F)n2)OC[C@]3(C)C(N)=O)cc2cn(C(F)F)nc12 [Example 156] | < 500 nM
9 | COc1cc(C(=O)NC[C@@](O)(c2ccccc2)c2cc3c(c(-c4cc(Cl)c(F)cc4F)n2)OC[C@]3(C)C(N)=O)cc2cc(Cl)c(C)nc12 [Example 159] | < 500 nM
10 | [2H]C([2H])([2H])c1nc2c(OC)cc(C(=O)NC[C@@](O)(c3cccc(OC)c3)c3cc4c(c(-c5cc(Cl)c(F)cc5F)n3)OC[C@]4(C)C(N)=O)cc2s1 [Example 163] | < 500 nM
11 | COc1cccc([C@](O)(CNC(=O)c2cc(OC)c3nc(C)c(Cl)cc3c2)c2cc3c(c(-c4cc(Cl)c(F)cc4F)n2)OC[C@]3(C)C(N)=O)c1 [Example 164] | < 500 nM
12 | COc1ccc([C@](O)(CNC(=O)c2cc(OC)c3nn(C(F)F)cc3c2)c2cc3c(c(-c4cc(Cl)c(F)cc4F)n2)OC[C@]3(C)C(N)=O)cc1 [Example 167] | < 500 nM
13 | [2H]C([2H])([2H])c1nc2c(OC)cc(C(=O)NC[C@@](O)(c3ccc(OC)cc3)c3cc4c(c(-c5cc(Cl)c(F)cc5F)n3)OC[C@]4(C)C(N)=O)cc2s1 [Example 168] | < 500 nM
14 | [2H]c1c([2H])c([2H])c([C@](O)(CNC(=O)c2cc(OC)c3nn(C4CC4)cc3c2)c2cc3c(c(-c4cc(Cl)c(F)cc4F)n2)OC[C@]3(C)C(N)=O)c([2H])c1[2H] [Example 169] | < 500 nM
15 | COc1cc(C(=O)NC[C@@](O)(c2ccsc2)c2cc3c(c(-c4cc(Cl)c(F)cc4F)n2)OC[C@]3(C)C(N)=O)cc2cn(C3CC3)nc12 [Example 173] | < 500 nM
16 | COc1cc(C(=O)NC[C@@](O)(c2ccsc2)c2cc3c(c(-c4cc(Cl)c(F)cc4F)n2)OC[C@]3(C)C(N)=O)cc2cn(C(F)F)nc12 [Example 174] | < 500 nM
17 | COc1cc(C(=O)NC[C@@](O)(c2ccsc2)c2cc3c(c(-c4cc(Cl)c(F)cc4F)n2)OC[C@]3(C)C(N)=O)cc2cn(C3(F)CC3)nc12 [Example 175] | < 500 nM
18 | [2H]C([2H])([2H])c1nc2c(OC)cc(C(=O)NC[C@@](O)(c3ccsc3)c3cc4c(c(-c5cc(Cl)c(F)cc5F)n3)OC[C@]4(C)C(N)=O)cc2s1 [Example 176] | < 500 nM
19 | COc1cc(C(=O)NC[C@@](O)(c2ccsc2)c2cc3c(c(-c4cc(F)c(F)cc4F)n2)OC[C@]3(C)C(N)=O)cc2cn(C3CC3)nc12 [Example 177] | < 500 nM
20 | COc1cc(C(=O)NC[C@@](O)(c2ccsc2)c2cc3c(c(-c4cc(F)c(F)cc4F)n2)OC[C@]3(C)C(N)=O)cc2cn(C(F)F)nc12 [Example 178] | < 500 nM
21 | COc1cc(C(=O)NC[C@](O)(c2cc3c(c(-c4cc(Cl)c(F)cc4F)n2)OC[C@]3(C)C(N)=O)c2cnn[nH]2)cc2cn(C3CC3)nc12 [Example 180] | > 500 nM
22 | COc1cc(C(=O)NC[C@@](O)(c2cc3c(c(-c4cc(Cl)c(F)cc4F)n2)OC[C@]3(C)C(N)=O)c2cnn[nH]2)cc2cn(C3CC3)nc12 [Example 181] | > 500 nM
23 | COc1cc(C(=O)NC[C@](O)(c2cc3c(c(-c4cc(F)c(F)cc4F)n2)OC[C@]3(C)C(N)=O)C2(O)CC2)cc2cn(C3CC3)nc12 [Example 215] | > 500 nM
24 | [2H]c1nc2c(OC(F)F)cc(C(=O)NC[C@@](O)(c3ccccc3)c3cc4c(c(-c5cc(Cl)c(F)cc5F)n3)OC[C@]4(C)C(N)=O)cc2cc1C([2H])([2H])[2H] [Example 217] | < 500 nM
25 | COc1cc(C(=O)NC[C@@](O)(c2ccccc2)c2cc3c(c(-c4ccc5c(c4Cl)OC(F)(F)O5)n2)OC[C@]3(C)C(N)=O)cc2cn(C3CC3)nc12 [Example 251] | < 500 nM

The remaining lines, values ahead:

Row | EC50 | SMILES
26 | < 500 nM | COc1cc(C(=O)NC[C@@](O)(c2ccccc2)c2cc3c(c(-c4cc(Cl)c(F)cc4F)n2)OC[C@]3(C)C(N)=O)cc2ccc(C)nc12 [Example 79]
27 | < 500 nM | COc1cc(C(=O)NC[C@@](O)(c2ccccc2)c2cc3c(c(-c4cc(Cl)c(F)cc4F)n2)OC[C@]3(C)C(N)=O)cc2cc(C)cnc12 [Example 80]
28 | < 500 nM | COc1cc(C(=O)NC[C@@](O)(c2ccccc2)c2cc3c(c(-c4cc(Cl)c(F)cc4F)n2)OC[C@]3(C)C(N)=O)cc2cc(C(F)(F)F)cnc12 [Example 83]
29 | < 500 nM | COc1cc(C(=O)NC[C@@](O)(c2ccccc2)c2cc3c(c(-c4cc(Cl)c(F)cc4F)n2)OC[C@]3(C)C(N)=O)cc2oc(C)nc12 [Example 84]
30 | < 500 nM | Cc1nc2ccc(C(=O)NC[C@@](O)(c3ccccc3)c3cc4c(c(-c5cc(Cl)c(F)cc5F)n3)OC[C@]4(C)C(N)=O)cc2o1 [Example 86]
31 | < 500 nM | [2H]C([2H])([2H])c1nc2ccc(C(=O)NC[C@@](O)(c3ccccc3)c3cc4c(c(-c5cc(Cl)c(F)cc5F)n3)OC[C@]4(C)C(N)=O)cc2o1 [Example 87]
32 | < 500 nM | COc1cc(C(=O)NC[C@@](O)(c2cccc(F)c2)c2cc3c(c(-c4cc(Cl)c(F)cc4F)n2)OC[C@]3(C)C(N)=O)cc2cn(C(F)F)nc12 [Example 134]
33 | < 500 nM | COc1cc(C(=O)NC[C@](O)(c2cc3c(c(-c4cc(Cl)c(F)cc4F)n2)OC[C@]3(C)C(N)=O)c2ccccc2F)cc2cn(C3CC3)nc12 [Example 136]
34 | < 500 nM | COc1cc(C(=O)NC[C@](O)(c2cc3c(c(-c4cc(Cl)c(F)cc4F)n2)OC[C@]3(C)C(N)=O)c2ccccc2F)cc2cc(C3CC3)nn12 [Example 137]
35 | < 500 nM | COc1cc(C(=O)NC[C@](O)(c2cc3c(c(-c4cc(Cl)c(F)cc4F)n2)OC[C@]3(C)C(N)=O)c2ccccc2F)cc2cn(C(F)F)nc12 [Example 138]
36 | < 500 nM | CNC(=O)[C@@]1(C)COc2c1cc([C@@](O)(CNC(=O)c1cc(OC)c3nn(C4CC4)cc3c1)c1ccccc1)nc2-c1cc(Cl)c(F)cc1F [Example 141]
37 | < 500 nM | CCNC(=O)[C@@]1(C)COc2c1cc([C@@](O)(CNC(=O)c1cc(OC)c3nn(C4CC4)cc3c1)c1ccccc1)nc2-c1cc(Cl)c(F)cc1F [Example 142]
38 | < 500 nM | COc1cc(C(=O)NC[C@@](O)(c2ccccc2)c2cc3c(c(-c4cc(Cl)c(F)cc4F)n2)OC[C@]3(C)C(=O)NC2CC2)cc2cn(C3CC3)nc12 [Example 143]

From patent US20240368174A1, “Antiviral Heterocyclic Compounds” (Enanta Pharmaceuticals, Inc., priority 2023, published 2024)
